Experimental findings from patent US20220009920A1 (GB005, Inc., priority 2020, published 2022) are described below.

Common to all, as to assay: Large panel kinase profiling
Type in all cases: biochemical
What all share (conditions): 1 μM test article, 1 mM ATP

Test [1] has as its target T1, MAP3K3 (Homo sapiens, UniProt Q99759).
T1 construct: AssayQuant Technologies, Inc. (service provider)
T1 sequence (Q99759 1-626): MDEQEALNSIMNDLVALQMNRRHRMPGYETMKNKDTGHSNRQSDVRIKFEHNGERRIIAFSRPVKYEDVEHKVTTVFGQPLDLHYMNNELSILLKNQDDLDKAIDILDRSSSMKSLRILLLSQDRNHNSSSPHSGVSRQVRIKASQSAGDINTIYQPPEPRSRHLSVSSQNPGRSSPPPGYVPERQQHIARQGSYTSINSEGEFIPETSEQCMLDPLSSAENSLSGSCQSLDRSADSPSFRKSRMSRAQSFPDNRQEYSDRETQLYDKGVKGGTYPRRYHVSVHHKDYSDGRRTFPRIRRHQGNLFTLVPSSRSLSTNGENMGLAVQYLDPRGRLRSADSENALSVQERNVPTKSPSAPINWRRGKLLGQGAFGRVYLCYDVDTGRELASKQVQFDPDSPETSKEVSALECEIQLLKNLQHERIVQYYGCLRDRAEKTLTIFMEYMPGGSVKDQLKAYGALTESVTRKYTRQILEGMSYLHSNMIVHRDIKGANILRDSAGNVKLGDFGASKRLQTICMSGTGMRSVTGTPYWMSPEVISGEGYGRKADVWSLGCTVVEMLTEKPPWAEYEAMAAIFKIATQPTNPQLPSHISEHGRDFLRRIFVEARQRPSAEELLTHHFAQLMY
In a few lines:
(§1)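 Activity is measured in real time from the CSox sensor's fluorescence at 485 nm after 360 nm excitation, sampled every minute. Assays run at 30° C. with 1 mM ATP and a single 1 μM compound dose.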

For test [2], the target named is FGFR2 (Homo sapiens, UniProt P21802). Put shortly:
as §1

The target of test [3] is LIMK1 (Homo sapiens, UniProt P53667). Put shortly: as §1
Chain of LIMK1 (P53667 whole entry, species assumed): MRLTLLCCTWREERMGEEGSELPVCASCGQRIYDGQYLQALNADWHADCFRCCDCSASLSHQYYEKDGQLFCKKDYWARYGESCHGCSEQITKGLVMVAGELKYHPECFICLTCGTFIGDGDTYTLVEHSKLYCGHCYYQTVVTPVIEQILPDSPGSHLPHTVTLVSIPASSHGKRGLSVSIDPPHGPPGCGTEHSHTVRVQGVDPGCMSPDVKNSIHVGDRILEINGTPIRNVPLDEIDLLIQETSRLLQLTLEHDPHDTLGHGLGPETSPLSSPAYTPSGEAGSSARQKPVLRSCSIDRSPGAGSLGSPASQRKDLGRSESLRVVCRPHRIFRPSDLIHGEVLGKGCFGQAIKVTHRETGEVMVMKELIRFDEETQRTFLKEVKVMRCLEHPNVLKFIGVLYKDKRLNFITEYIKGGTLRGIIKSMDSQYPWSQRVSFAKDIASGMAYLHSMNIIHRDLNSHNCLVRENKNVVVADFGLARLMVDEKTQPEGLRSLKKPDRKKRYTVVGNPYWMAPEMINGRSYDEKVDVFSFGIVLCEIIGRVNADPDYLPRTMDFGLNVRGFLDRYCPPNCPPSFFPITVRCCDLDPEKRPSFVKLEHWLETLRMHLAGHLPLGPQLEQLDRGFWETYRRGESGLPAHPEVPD
The target of test [4] is T2, EPHA6 (Homo sapiens, UniProt Q9UF33).
T2 sequence (Q9UF33 23-1036): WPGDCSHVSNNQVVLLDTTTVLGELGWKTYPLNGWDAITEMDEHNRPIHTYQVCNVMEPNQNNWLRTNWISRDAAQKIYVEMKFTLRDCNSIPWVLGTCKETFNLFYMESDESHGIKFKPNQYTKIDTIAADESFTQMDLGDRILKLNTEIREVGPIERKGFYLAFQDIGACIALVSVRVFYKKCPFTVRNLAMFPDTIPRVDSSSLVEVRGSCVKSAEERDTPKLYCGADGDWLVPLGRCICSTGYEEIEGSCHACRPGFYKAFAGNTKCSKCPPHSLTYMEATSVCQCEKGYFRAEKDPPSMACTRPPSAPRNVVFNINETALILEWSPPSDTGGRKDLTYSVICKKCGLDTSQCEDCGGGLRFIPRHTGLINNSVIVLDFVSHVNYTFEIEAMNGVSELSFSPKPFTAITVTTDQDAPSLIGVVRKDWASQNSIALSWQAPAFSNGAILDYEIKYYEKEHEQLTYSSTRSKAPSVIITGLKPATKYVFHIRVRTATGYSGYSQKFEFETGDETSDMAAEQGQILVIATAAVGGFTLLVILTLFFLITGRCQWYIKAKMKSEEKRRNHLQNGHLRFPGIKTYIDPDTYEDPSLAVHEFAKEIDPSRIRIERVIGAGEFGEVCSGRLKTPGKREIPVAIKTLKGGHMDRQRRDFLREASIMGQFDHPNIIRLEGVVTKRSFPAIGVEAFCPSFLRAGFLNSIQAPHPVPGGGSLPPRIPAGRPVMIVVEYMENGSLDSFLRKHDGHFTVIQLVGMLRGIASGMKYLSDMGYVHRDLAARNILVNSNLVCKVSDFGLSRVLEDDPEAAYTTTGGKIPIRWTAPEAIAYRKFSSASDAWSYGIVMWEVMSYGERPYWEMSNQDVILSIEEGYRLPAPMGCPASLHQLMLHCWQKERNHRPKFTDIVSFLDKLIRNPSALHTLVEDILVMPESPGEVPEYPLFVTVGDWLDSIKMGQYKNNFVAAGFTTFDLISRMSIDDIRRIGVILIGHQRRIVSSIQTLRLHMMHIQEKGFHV
Put shortly: as §1

In test [5] the target is T3, MAP3K2 (Homo sapiens, UniProt Q9Y2U5).
T3 construct: AssayQuant Technologies, Inc. (service provider)
T3 sequence (Q9Y2U5 1-619): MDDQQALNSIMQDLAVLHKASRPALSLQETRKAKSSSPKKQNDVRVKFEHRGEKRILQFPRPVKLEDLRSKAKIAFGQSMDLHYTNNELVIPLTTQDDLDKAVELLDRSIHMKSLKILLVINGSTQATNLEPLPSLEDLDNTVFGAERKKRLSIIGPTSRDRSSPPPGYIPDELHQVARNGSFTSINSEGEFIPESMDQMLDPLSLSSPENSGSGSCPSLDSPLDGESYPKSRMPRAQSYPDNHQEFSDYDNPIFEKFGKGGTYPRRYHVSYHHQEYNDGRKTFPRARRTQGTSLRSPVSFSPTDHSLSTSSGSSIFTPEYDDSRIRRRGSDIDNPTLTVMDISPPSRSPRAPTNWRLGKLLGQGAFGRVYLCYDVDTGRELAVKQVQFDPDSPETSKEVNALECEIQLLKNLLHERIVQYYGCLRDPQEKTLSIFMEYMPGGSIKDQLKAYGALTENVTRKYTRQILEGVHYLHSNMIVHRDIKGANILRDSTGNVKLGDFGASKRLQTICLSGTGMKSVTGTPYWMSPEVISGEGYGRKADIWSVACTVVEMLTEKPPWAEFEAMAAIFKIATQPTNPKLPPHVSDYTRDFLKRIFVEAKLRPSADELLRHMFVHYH
Put shortly: as §1

Chain of FGFR2 (P21802 22-821, species assumed): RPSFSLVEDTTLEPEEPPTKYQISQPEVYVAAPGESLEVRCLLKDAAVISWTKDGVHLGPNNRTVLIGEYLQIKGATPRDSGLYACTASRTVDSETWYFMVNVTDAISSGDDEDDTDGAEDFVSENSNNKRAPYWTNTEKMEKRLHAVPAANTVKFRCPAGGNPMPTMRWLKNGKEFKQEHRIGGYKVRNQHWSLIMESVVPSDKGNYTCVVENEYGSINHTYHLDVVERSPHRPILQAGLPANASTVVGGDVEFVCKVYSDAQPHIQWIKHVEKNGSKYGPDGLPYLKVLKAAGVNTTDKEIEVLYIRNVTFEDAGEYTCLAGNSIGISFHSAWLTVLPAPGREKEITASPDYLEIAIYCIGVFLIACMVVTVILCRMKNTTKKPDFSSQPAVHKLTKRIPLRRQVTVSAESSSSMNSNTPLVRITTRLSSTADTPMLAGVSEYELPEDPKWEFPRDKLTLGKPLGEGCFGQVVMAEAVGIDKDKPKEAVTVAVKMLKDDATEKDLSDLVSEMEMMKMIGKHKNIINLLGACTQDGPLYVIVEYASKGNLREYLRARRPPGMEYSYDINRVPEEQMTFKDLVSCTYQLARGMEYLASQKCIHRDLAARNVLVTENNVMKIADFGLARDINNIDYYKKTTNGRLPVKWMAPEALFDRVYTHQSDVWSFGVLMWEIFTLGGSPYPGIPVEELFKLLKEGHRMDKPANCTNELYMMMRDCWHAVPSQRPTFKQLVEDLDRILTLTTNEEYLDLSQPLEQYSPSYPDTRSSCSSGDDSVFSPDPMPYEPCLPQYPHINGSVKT

In general, inhibition refers to the relative decrease from the control value, in per cent. In the case of `C=CC(=O)N1CCC[C@@H](c2c(F)cc(C(N)=O)c3[nH]c4c(c23)CCC4)C1` [Compound 10-2, (S)-8-(1-acryloylpiperidin-3-yl)-7-fluoro-1,2,3,4-tetrahydrocyclo-penta[b]indole-5-carboxamide], the inhibition at 1 µM was 19.9% in test [1]; -3.5% in test [2]; -10.7% in test [3]; -17.7% in test [4]; 15.7% in test [5].

With `C=CC(=O)N1CCCC(c2c(F)cc(C(N)=O)c3[nH]c4c(c23)CCCCC4)C1` (single isomer, unassigned) [Compound 5-6], the inhibition at 1 µM in test [1] was -7%; in test [2], 17.7%; in test [3] it was -7.2%; in test [4] it was 6.1%; in test [5], -19%.

As for `C=CC(=O)N1CCC[C@@H](c2c(F)cc(C(N)=O)c3[nH]c4c(c23)CC2(CC4)CC2)C1` [Compound 6-2, (S)-5-(1-acryloylpiperidin-3-yl)-6-fluoro-1,2,4,9-tetrahydrospiro[carbazole-3,1′-cyclopropane]-8-carboxamide], the inhibition at 1 µM in test [1] is -3.6%; in test [2], -15.3%; in test [3], -14.7%; in test [4], -14.6%; in test [5] it was -6.6%.
